Laboratory results from ChEMBL document CHEMBL3745669, “Isolation of bioactive biphenyl compounds from the twigs of Chaenomeles sinensis” (Bioorg Med Chem Lett, 2016).

How the values were obtained:
[1] = tested on: BV-2; assay: Anti-neuroinflammatory activity in mouse BV2 cells assessed as inhibition of LPS-induced NO production after 24 hrs by Griess assay; format: functional, cell-based; conditions: BV-2, 24 h
[2] = tested on: C6; assay: Stimulation of NGF secretion in rat C6 cells at 20 uM after 24 hrs by ELISA; format: functional
[3] = Cytotoxicity against mouse BV2 cells assessed as viable cells at 20 uM by MTT assay; format: cell-based, BV-2; conditions: read-out: Activity
[4] = Cytotoxicity against rat C6 cells assessed as viable cells at 20 uM by MTT assay; format: cell-based; conditions: read-out: Activity
[5] = tested on: A549; assay: Cytotoxicity against human A549 cells after 48 hrs by SRB assay; format: functional, cell-based; conditions: A549, 48 h
[6] = Cytotoxicity against human HCT15 cells after 48 hrs by SRB assay; format: functional, cell-based; conditions: HCT-15, 48 h
[7] = tested on: SK-MEL-2; assay: Cytotoxicity against human SK-MEL-2 cells after 48 hrs by SRB assay; format: functional, cell-based; conditions: SK-MEL-2, 48 h
[8] = Cytotoxicity against human SKOV3 cells after 48 hrs by SRB assay; format: functional, cell-based; conditions: SK-OV-3, 48 h

Structure (SMILES)	IC50 [1]	Activity [2]	viability at 20 µM [3]	viability at 20 µM [4]	IC50 [5]	IC50 [6]	IC50 [7]	IC50 [8]
COc1cc(-c2ccccc2O)cc(OC)c1O	38.1 µM	137.33%	118%	119%	–	–	–	–
COc1ccc2c(oc3c(OC)c(OC)c(O)cc32)c1O	15.8 µM	186.49%	198%	113%	> 30 µM	> 30 µM	23.5 µM	19.3 µM
COc1ccc(-c2cc(OC)c(O)c(OC)c2)c(OC)c1	39.6 µM	164.56%	129%	119%	5.18 µM	7.81 µM	6.94 µM	7.84 µM
COc1cc([C@@H]2c3cc4c(cc3[C@@H](O[C@@H]3O[C@@H]5CO[C@@H](C)O[C@H]5[C@H](O)[C@H]3O)[C@H]3COC(=O)[C@H]23)OCO4)cc(OC)c1O [ETOPOSIDE]	–	–	–	–	1.74 µM	2.95 µM	1.33 µM	1.96 µM
CCCCC/C=C/C(=O)CCc1ccc(O)c(OC)c1 [SHOGAOL]	–	158.18%	–	110%	–	–	–	–
CNC(=N)NCCC[C@H](N)C(=O)O [TILARGININE]	20.5 µM	–	100%	–	–	–	–	–

Further lines, with some results ahead:

IC50 [1]	Structure (SMILES)	Activity [2]	viability at 20 µM [3]	viability at 20 µM [4]	IC50 [5]	IC50 [6]	IC50 [7]	IC50 [8]
48.4 µM	COc1ccc(-c2cc(OC)c(O)c(Oc3c(OC)cc([C@@H](O)[C@H](O)CO)cc3OC)c2)c(OC)c1	125.81%	132%	115%	12.7 µM	27.3 µM	16.3 µM	29.5 µM
28.1 µM	COc1ccccc1-c1cc(OC)c(O)c(OC)c1	152.86%	138%	118%	–	–	–	–
50.1 µM	COc1cc(-c2ccccc2)cc(OC)c1O [AUCUPARIN]	125.76%	126%	117%	–	–	–	–
49.3 µM	COc1cc(-c2ccccc2)cc(Oc2c(OC)cc([C@@H](O)[C@H](O)CO)cc2OC)c1O [BERBEKORIN A]	155.02%	116%	119%	4.12 µM	1.96 µM	4.49 µM	4.03 µM
